Assay results published in article PMC2717725 (Journal of medicinal chemistry, 2008).
Counter-ions that a name gives are not always drawn.

Tests used:
GSK-3α/β = GSK-3α/β kinase assay; type: biochemical, porcine; details: for IC50: read-out: GSK3 IC50, GSK-3α/β, 15 μM ATP, from dose-response curves
[1] = Equilibrium water solubility; type: physicochemical
[2] = system: GSK-3 -phosphorylated β-catenin; experiment: β-catenin phosphorylation at GSK-3 sites in SH-SY5Y cells; type: cell-based, human; details: 6 h, 10 μM or dose-response, 2 μM MG132
CDK1/cyclin B = CDK1/cyclin B kinase assay; type: biochemical, starfish (Marthasterias glacialis); details: read-out: CDK1 IC50, 15 μM ATP
Rat-1 fibroblasts [3] = experiment: Luminescence assay of circadian rhythmicity, PPer2::Fluc reporter; type: cell-based; details: 10 μM, Rat-1 PPer2::Fluc, monitored 4 days
Rat-1 fibroblasts [4] = details: lithium 10-20 mM, mammalian cells; cited from earlier work

| SMILES | inhibition of β-catenin phosphorylation at GSK-3 specific sites [2] | IC50 (CDK1/cyclin B) [nM] | also measured |
| --- | --- | --- | --- |
| O=C1Nc2cc(Br)ccc2/C1=C1/Nc2ccccc2/C1=N\OCC(O)CO (stereo not drawn) [Compound 3, (2′Z-3′E)-6-Bromoindirubin-3′-[O-(2,3-dihydroxypropyl)-oxime]] | most efficient | 110 | decrease of activity/affinity on GSK-3 compared to 6BIO (GSK-3α/β; relative to 6BIO): 6 fold; solubility change versus 6BIO (in words) ([1]; water): mediocre improvement of solubility |
| O=C1Nc2cc(Br)ccc2/C1=C1/Nc2ccccc2/C1=N\OCCN(CCO)CCO [Compound 9] | most efficient | – | – |
| Cl.O=C1Nc2cc(Br)ccc2/C1=C1/Nc2ccccc2/C1=N\OCCN(CCO)CCO [Compound 20] | most efficient | – | – |
| O=C1Nc2cc(Br)ccc2/C1=C1/Nc2ccccc2/C1=N\OCCO [Compound 2, (2′Z-3′E)-6-Bromoindirubin-3′-[O-(2-hydroxyethyl)-oxime]] | – | > 10000 | IC50 (GSK-3α/β): 3 nM |
| CN(C)CCO/N=C1/C(=C2/C(=O)Nc3cc(Br)ccc32)Nc2ccccc21.Cl [Compound 16, (2′Z-3′E)-6-Bromoindirubin-3′-[O-(2-dimethylaminoethyl)oxime] Hydrochloride] | most efficient | – | – |
| CN1CCN(CCO/N=C2/C(=C3/C(=O)Nc4cc(Br)ccc43)Nc3ccccc32)CC1 [Compound 12, (2′Z-3′E)-6-Bromoindirubin-3′-{O-[2-(4-methyl-piperazin-1-yl)ethyl]oxime}] | most efficient | – | selectivity for GSK-3 versus 6BIO (GSK-3α/β; GSK-3 over CDKs, compared to 6BIO): improved selectivity of one order of magnitude |
| CN(CCON=C1C(=C2C(=O)Nc3cc(Br)ccc32)Nc2ccccc21)CC(O)CO.Cl (stereo not drawn) [Compound 21, (2Z-3′E)-6-Bromoindirubin-3′-(O-{2-[N-methyl, N-(2,3-dihydroxypropyl)amino]ethyl}oxime] Hydrochloride] | – | 150 | IC50 (GSK-3α/β): 23 nM; solubility ([1]; double distilled water): 1450 µg/mL |
| O=C1Nc2cc(Br)ccc2/C1=C1/Nc2ccccc2/C1=N\OCCN1CCN(CCO)CC1 [Compound 13, (2′Z-3′E)-6-Bromoindirubin-3′-(O-{2-[4-(2-hydroxyethyl)piperazin-1-yl]ethyl}oxime)] | most efficient | – | – |
| O=C1Nc2cc(Br)ccc2/C1=C1/Nc2ccccc2/C1=N\OCCN1CCNCC1 [Compound 11, (2′Z-3′E)-6-Bromoindirubin-3′-[O-(2-piperazine-1-ylethyl)oxime]] | most efficient | – | – |
| CCN(CC)C(=O)O/N=C1/C(=C2/C(=O)Nc3cc(Br)ccc32)Nc2ccccc21 [Compound 4, (2′Z-3′E)-6-Bromoindirubin-3′-[O-(N,N-diethylcarbamyl)-oxime]] | – | > 10000 | – |
| O=C1Nc2cc(Br)ccc2/C1=C1/Nc2ccccc2/C1=N\OCCN1CCCC1 [Compound 7, (2′Z-3′E)-6-Bromoindirubin-3′-[O-(2-pyrrolidin-1-ylethyl)oxime]] | – | 500 | – |
| O=C1Nc2cc(Br)ccc2/C1=C1/Nc2ccccc2/C1=N\OCCN1CCN(CCOCCO)CC1 [Compound 15, (2′Z-3′E)-6-Bromoindirubin-3′-[O-(2-{4-[2-(2-hydroxyethoxy)-ethyl]piperazin-1-yl}ethyl)oxime]] | – | 900 | effect on circadian period length (Rat-1 fibroblasts [3]): gradual shortening of the period length |
| [Li] [Lithium] | – | – | effect on circadian period (Rat-1 fibroblasts [4]): lengthens the period |
| Cl.Cl.O=C1Nc2cc(Br)ccc2/C1=C1/Nc2ccccc2/C1=N\OCCN1CCNCC1 [Compound 22, (2′Z-3′E)-6-Bromoindirubin-3′-[O-(2-piperazine-1-ylethyl)oxime] Dihydrochloride] | most efficient | – | – |
| COCCN1CCN(CCO/N=C2/C(=C3/C(=O)Nc4cc(Br)ccc43)Nc3ccccc32)CC1 [Compound 25, (2′Z-3E)-6-Bromoindirubin-3′-(O-{2-[4-(2-methoxyethyl)piperazin-1-yl]ethyl}oxime) Dihydrochloride] | – | 1000 | – |
| O=C1Nc2cc(Br)ccc2/C1=C1/Nc2ccccc2/C1=N\OCCN1CCCC1 [Compound 18, (2′Z-3′E)-6-Bromoindirubin-3′-[O-(2-pyrrolidin-1-ylethyl)oxime] Hydrochloride] | – | 450 | – |
| O=C1Nc2cc(Br)ccc2/C1=C1/Nc2ccccc2/C1=N\OCCBr [Compound 1, (2′Z-3′E)-6-Bromoindirubin-3′-[O-(2-bromoethyl)-oxime]] | – | > 10000 | – |
| Cl.Cl.O=C1Nc2cc(Br)ccc2/C1=C1/Nc2ccccc2/C1=N\OCCN1CCN(CCO)CC1 [Compound 24, (2′Z-3E)-6-Bromoindirubin-3′-(O-{2-[4-(2-hydroxyethyl)piperazin-1-yl]ethyl}oxime) Dihydrochloride] | most efficient | – | – |
| CN(C)CCO/N=C1/C(=C2/C(=O)Nc3cc(Br)ccc32)Nc2ccccc21 [Compound 5, (2′Z-3′E)-6-Bromoindirubin-3′-[O-(2-dimethylaminoethyl)-oxime]] | most efficient | – | – |
| CN1CCN(CCO/N=C2/C(=C3/C(=O)Nc4cc(Br)ccc43)Nc3ccccc32)CC1.Cl.Cl [Compound 23, (2′Z-3′E)-6-Bromoindirubin-3′-{O-[2-(4-methylpiperazin-1-yl)ethyl]oxime} Dihydrochloride] | most efficient | – | – |
| CN1C(=O)C(=C2Nc3ccccc3C2=NO)c2ccc(Br)cc21 [1-methyl-6BIO, reference compound] | ineffective | – | – |
| O=C1Nc2cc(Br)ccc2/C1=C1/Nc2ccccc2/C1=N\OCCN1CCN(CCOCCO)CC1 [Compound 26, (2′Z-3′E)-6-Bromoindirubin-3′-[O-(2-{4-[2-(2-hydroxyethoxy)-ethyl]piperazin-1-yl}ethyl)oxime] Dihydrochloride] | – | 500 | – |
